From patent publication US5602101A, “Antithrombotic agents” (priority 1994, dated 1997)
Where two headings read alike, the source gives them in different places. Non-standard residues stand in square brackets, D forms with d. Residues, ends and D or L forms follow the SMILES beside them. dNMeCha = CN[C@H](CC1CCCCC1)C(=O)O; dCha = N[C@H](CC1CCCCC1)C(=O)O

Assays:
Human Plasma [1] = assay: Anticoagulation in human plasma, prothrombin time (PT); assay type: biochemical; details: concentration required to double the PT
Procedure, shortened: (§1)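 Compounds were added to human plasma over a range of concentrations. PT used Thromboplastin-C reagent with saline; APTT used a 120-second Actin preincubation followed by 0.02M CaCl2, and TT used bovine thrombin. Clotting times were read on a CoAScreener, and the concentration doubling clotting time was estimated by linear extrapolation.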

Bovine trypsin = target: T1, Bovine trypsin (Bos taurus, UniProt P00760); assay: Serine protease inhibition, trypsin (chromogenic substrate), Kass; assay type: biochemical; details: substrate N-Benzoyl-Phe-Val-Arg-p-nitroanilide
T1 construct: Bovine trypsin is purchased from Worthington Biochemicals, Freehold, N.J; purchased Worthington Biochemicals, Freehold, N.J
T1 sequence (P00760 24-246): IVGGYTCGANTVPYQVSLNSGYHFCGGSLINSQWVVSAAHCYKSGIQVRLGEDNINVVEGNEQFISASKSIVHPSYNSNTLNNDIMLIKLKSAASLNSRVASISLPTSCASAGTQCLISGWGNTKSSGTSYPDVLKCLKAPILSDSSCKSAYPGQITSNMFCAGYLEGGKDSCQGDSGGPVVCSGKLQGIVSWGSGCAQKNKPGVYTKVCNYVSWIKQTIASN
Procedure, shortened: (§2)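 Enzyme mixed with test compound in 0.03M Tris, 0.15M NaCl, pH 7.4, then p-nitroanilide substrate added (Bz-Ile-Glu-Gly-Arg-pNA for factor Xa; Bz-Phe-Val-Arg-pNA for trypsin; H-D-Ile-Pro-Arg-pNA for t-PA; H-D-Val-Leu-Lys-pNA for plasmin); hydrolysis followed at 405 nm. Free enzyme from standard curves gave bound enzyme and free inhibitor; Kass (L/mol) averaged over several compound concentrations.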

Human Plasma [2] = assay: Anticoagulation in human plasma, thrombin time (TT); assay type: biochemical; details: concentration required to double the thrombin time
Procedure, shortened: as §1

[3] = rat, in vivo
[4] = target: T2, tissue plasminogen activator (t-PA) (Homo sapiens, UniProt P00750); assay: Serine protease inhibition, t-PA (chromogenic substrate), Kass; assay type: biochemical; details: substrate H-D-Ile-Pro-Arg-p-nitroanilide
T2 construct: purchased American Diagnostics, Greenwich, Conn
Procedure, shortened: as §2

factor Xa = target: T3, factor Xa (Homo sapiens, UniProt P00742); assay: Serine protease inhibition, factor Xa (chromogenic substrate), Kass; assay type: biochemical; details: substrate N-Benzoyl-Ile-Glu-Gly-Arg-p-nitroanilide
T3 construct: Human factors X, Xa, IXa, XIa, and xIIa are purchased from Enzyme Research Laboratories; purchased Enzyme Research Laboratories, South Bend, Ind
Procedure, shortened: as §2

Human Plasma [5] = assay: Anticoagulation in human plasma, activated partial thromboplastin time (APTT); assay type: biochemical; details: concentration required to double the APTT
Procedure, shortened: as §1

Human plasmin = target: T4, Human plasmin (Homo sapiens, UniProt P00747); assay: Serine protease inhibition, plasmin (chromogenic substrate), Kass; assay type: biochemical; details: substrate H-D-Val-Leu-Lys-p-nitroanilide
T4 construct: Human plasmin is purchased from Boehringer Mannheim, Indianapolis, Ind; purchased Boehringer Mannheim, Indianapolis, Ind
Procedure, shortened: as §2

human thrombin = target: T5, human thrombin (Homo sapiens, UniProt P00734); assay: Inhibition of amidase activity of thrombin (chromogenic substrate), Kass; assay type: biochemical; details: substrate N-benzoyl-Phe-Val-Arg-p-nitroanilide, pH 7.4
T5 construct: purified human thrombin Enzyme Research Laboratories, South Bend, Ind; purchased Enzyme Research Laboratories, South Bend, Ind
Procedure, shortened: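 Human thrombin (8 NIH units/ml solution) with compound in 0.03M Tris, 0.15M NaCl, pH 7.4; chromogenic substrate hydrolysis followed at 405 nm. Free thrombin from standard curves gives bound enzyme and free inhibitor; Kass, an association equilibrium constant in L/mol, averaged over a compound concentration range.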

[6] = Index of bioavailability (plasma TT AUC, p.o. vs i.v.); details: rats, adjusted for dose

T4 sequence (P00747 581-810 limits assumed): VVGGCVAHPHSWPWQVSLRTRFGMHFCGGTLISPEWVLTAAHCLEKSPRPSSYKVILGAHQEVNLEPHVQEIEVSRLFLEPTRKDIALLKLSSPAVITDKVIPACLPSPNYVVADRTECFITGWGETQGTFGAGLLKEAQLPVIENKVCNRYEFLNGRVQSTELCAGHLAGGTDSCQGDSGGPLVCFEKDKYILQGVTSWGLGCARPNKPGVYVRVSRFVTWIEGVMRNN
T4 sequence (P00747 97-580 partner limits assumed): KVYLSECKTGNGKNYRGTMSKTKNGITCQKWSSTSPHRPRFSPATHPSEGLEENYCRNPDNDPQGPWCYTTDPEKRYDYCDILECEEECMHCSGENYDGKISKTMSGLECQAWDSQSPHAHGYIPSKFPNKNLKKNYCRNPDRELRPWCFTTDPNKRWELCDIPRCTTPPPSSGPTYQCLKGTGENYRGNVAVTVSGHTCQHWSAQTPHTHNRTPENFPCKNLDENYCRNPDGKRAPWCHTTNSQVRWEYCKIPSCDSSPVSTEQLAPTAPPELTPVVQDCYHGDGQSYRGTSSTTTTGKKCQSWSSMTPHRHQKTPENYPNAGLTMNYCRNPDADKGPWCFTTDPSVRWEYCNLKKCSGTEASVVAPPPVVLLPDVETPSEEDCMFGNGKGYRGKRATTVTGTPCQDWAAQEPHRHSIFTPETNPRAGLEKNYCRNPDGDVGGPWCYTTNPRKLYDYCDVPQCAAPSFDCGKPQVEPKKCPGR
T2 sequence (P00750 36-562): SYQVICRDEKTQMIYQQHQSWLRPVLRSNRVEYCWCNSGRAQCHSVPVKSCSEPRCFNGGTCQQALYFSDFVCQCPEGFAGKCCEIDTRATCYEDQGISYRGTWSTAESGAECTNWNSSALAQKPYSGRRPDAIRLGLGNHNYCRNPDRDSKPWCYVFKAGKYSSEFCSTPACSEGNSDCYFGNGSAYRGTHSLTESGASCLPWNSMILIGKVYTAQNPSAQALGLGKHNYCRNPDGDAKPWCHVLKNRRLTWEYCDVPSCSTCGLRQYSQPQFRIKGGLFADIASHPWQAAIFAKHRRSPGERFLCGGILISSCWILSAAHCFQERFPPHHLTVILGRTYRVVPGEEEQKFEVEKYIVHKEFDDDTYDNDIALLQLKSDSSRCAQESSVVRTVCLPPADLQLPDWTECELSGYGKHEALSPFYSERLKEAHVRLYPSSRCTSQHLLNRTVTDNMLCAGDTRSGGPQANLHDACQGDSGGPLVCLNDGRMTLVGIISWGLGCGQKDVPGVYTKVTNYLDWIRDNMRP
T3 sequence (P00742 235-488 limits assumed): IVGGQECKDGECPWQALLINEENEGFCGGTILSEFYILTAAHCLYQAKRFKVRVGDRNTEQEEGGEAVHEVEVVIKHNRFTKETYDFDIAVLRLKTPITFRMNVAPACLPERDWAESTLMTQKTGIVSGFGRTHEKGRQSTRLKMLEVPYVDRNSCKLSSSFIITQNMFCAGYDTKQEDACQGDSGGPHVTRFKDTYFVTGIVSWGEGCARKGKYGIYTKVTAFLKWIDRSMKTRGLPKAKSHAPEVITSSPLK
T3 sequence (P00742 41-179 partner limits assumed): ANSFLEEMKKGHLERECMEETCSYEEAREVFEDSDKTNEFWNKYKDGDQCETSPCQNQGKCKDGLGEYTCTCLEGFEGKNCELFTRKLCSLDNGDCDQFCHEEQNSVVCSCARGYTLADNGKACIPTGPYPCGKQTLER

Enzyme Kass, Trypsin (Bovine trypsin) | Index of Bioavailability, % Relative Activity [3] | Enzyme Kass, t-Pa [4] | Enzyme Kass, Xa (factor Xa) | Enzyme Kass, Plasmin (Human plasmin) | Enzyme Kass, Human Thrombin (human thrombin) | SMILES | 2 × Clotting time, PT (Human Plasma [1]) | 2 × Clotting time, TT (Human Plasma [2]) | 2 × Clotting time, APTT (Human Plasma [5]) | Index of Bioavailability, % Relative Activity [6]
12 L/mol × 10^6 | 9% | 0.035 L/mol × 10^6 | 1.1 L/mol × 10^6 | 0.61 L/mol × 10^6 | 26 L/mol × 10^6 | CC(=O)N[C@H](CC1CCCCC1)C(=O)N1CCC[C@H]1C(=O)N[C@H](C=O)CCCNC(=N)N.Cl [Example 28, Ac-D-Cha-Pro-Arg-H.HCl] (Ac-[dCha]-Pro-Arg-aldehyde) | 3,500 ng/ML | 92 ng/mL | 1,900 ng/ML | 
200 L/mol × 10^6 | 19% | 0.73 L/mol × 10^6 | 20 L/mol × 10^6 | 45 L/mol × 10^6 | 550 L/mol × 10^6 | CCS(=O)(=O)N[C@H](CC1CCCCC1)C(=O)N1CCC[C@H]1C(=O)N[C@H](C=O)CCCNC(=N)N.Cl [Example 21, EtSO2 -D-Cha-Pro-Arg-H.HCl] | 730 ng/mL | 25 ng/mL | 260 ng/mL | 
160 L/mol × 10^6 | 13% | 0.037 L/mol × 10^6 | 5.6 L/mol × 10^6 | 7.7 L/mol × 10^6 | 590 L/mol × 10^6 | CN[C@H](CC1CCCCC1)C(=O)N1CCC[C@H]1C(=O)N[C@H](C=O)CCCNC(=N)N.Cl [Example 31, Me-D-Cha-Pro-Arg-H.HCl] (H-[dNMeCha]-Pro-Arg-aldehyde) | 720 ng/mL | 18 ng/mL | 420 ng/mL | 

SMILES | Enzyme Kass, Trypsin (Bovine trypsin) | Index of Bioavailability, % Relative Activity [3] | Enzyme Kass, t-Pa [4] | Enzyme Kass, Xa (factor Xa) | Enzyme Kass, Plasmin (Human plasmin) | Enzyme Kass, Human Thrombin (human thrombin) | 2 × Clotting time, PT (Human Plasma [1]) | 2 × Clotting time, TT (Human Plasma [2]) | 2 × Clotting time, APTT (Human Plasma [5]) | Index of Bioavailability, % Relative Activity [6]
CCS(=O)(=O)N[C@H](Cc1ccccc1)C(=O)N1CCC[C@H]1C(=O)N[C@H](C=O)CCCNC(=N)N.Cl [Example 8, EtSO2 -D-Phe-Pro-Arg-H-HCl] | 260 L/mol × 10^6 |  | 2.9 L/mol × 10^6 | 2.6 L/mol × 10^6 | 31 L/mol × 10^6 | 450 L/mol × 10^6 | 660 ng/mL | 9 ng/mL | 260 ng/mL | 31%
Cl.N=C(N)NCCC[C@@H](C=O)NC(=O)[C@@H]1CCCN1C(=O)[C@@H](Cc1ccccc1)NS(=O)(=O)c1ccc(C(=O)O)cc1 [Example 18, 4-(HO2 C)-C6 H4 SO2 -D-Phe-Pro-Arg-H.HCl] | 43 L/mol × 10^6 |  | 1.1 L/mol × 10^6 | 2.0 L/mol × 10^6 | 7.0 L/mol × 10^6 | 70 L/mol × 10^6 | 3,000 ng/ML | 120 ng/mL | 1,200 ng/ML | 13%
